# In ChEMBL document CHEMBL5108087, “Synthesis and biological evaluation of paeoveitol D derivatives as new melatonin receptor agonists with antidepressant activities” (RSC Med Chem, 2022):
# Legend:
# [1] = molecular target: Melatonin receptor type 1A (Homo sapiens, UniProt P48039); assay: Agonist activity at human MT1 receptor expressed in HEK293 cells by Fluo-8 based calcium assay; assay type: functional, cell-based
# [2] = molecular target: T1, Melatonin receptor type 1B (Homo sapiens, UniProt P49286); assay: Agonist activity at human MT2 receptor expressed in HEK293 cells by Fluo-8 based calcium assay; assay type: functional, cell-based
# T1 sequence (P49286 whole entry): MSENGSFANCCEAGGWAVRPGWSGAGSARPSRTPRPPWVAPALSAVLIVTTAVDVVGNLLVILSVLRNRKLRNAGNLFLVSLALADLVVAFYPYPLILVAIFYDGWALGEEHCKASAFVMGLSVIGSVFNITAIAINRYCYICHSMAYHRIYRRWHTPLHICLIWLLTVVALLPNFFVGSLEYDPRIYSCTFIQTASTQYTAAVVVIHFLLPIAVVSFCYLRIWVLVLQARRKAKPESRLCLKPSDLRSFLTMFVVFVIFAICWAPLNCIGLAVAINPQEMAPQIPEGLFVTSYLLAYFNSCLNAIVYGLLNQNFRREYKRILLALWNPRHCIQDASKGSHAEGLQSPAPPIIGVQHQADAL
# Melatonin receptor type 1A, sequence (P48039 whole entry): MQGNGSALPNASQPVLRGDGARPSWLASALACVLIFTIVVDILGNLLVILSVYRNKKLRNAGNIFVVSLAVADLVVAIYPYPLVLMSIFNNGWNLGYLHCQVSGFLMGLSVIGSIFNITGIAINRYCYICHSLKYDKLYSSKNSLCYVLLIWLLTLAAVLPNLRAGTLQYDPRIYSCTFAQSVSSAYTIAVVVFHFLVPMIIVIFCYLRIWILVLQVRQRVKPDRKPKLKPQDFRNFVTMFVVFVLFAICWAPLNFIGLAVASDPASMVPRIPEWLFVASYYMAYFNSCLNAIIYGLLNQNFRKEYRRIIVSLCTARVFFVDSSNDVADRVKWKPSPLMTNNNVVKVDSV
compound,measurement,setting,value
COc1cc2c(CN)coc2cc1C,EC50,[1],250 µM
same,EC50,[2],350 µM
